From paper PMC5411961, “One amino acid makes a difference–Characterization of a new TPMT allele and the influence of SAM on TPMT stability” (Scientific Reports, 2017)

Target: T1, TPMTwt (Homo sapiens, UniProt P51580)
T1 construct: gene TPMT; recombinant, pET-28a, E. coli BL21(DE3) CodonPlus, His-tag cleaved off with thrombin, Ni-NTA and gel filtration
T1 sequence (P51580 1-245): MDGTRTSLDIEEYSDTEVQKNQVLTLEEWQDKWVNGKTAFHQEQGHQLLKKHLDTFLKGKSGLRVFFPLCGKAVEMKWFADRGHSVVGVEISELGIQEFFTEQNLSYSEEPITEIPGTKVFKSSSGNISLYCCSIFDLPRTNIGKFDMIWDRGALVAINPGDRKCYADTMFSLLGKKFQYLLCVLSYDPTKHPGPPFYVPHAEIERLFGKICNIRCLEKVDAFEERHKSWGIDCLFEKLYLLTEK
Assay: isothermal titration calorimetry
Assay type: binding

C[S+](CC[C@H](N)C(=O)O)C[C@H]1O[C@@H](n2cnc3c(N)ncnc32)[C@H](O)[C@@H]1O (stereo partly shown) [SAM]
Kd: 2.7 µM
